Source: patent publication EP0048614B1, “1-N-acylated and 1-N-alkylated derivatives of 4-0-substituted -2-deoxystreptamine aminoglycosides” (ELI LILLY AND COMPANY, priority 1980, dated 1982)
Values after ≈ are worked out from the molar mass of the structure shown.

Experiments:
[1] = system: Streptococcus pneumoniae Park I; experiment: MIC, standard agar dilution test; type: cell-based; details: Streptococcus pneumoniae, read-out: Minimum Inhibitory Concentration
Text: (§1) The antibacterial activity of the deprotected compounds of this invention is illustrated by the following in vitro and in vivo test data obtained with representative compounds. In Table I, the minimum inhibitory concentration (MIC) for representative compounds against a wide range of gram-positive and gram-negative bacteria is presented. The MIC values were obtained by the standard agar dilution test.

[2] = system: Enterobacter aerogenes X68; experiment: MIC, standard agar dilution test; type: cell-based; details: Klebsiella aerogenes, Enterobacter aerogenes X68, read-out: Minimum Inhibitory Concentration
Text: as §1

[3] = system: Staphylococcus epidermidis EPI2; experiment: MIC, standard agar dilution test; type: cell-based; details: Staphylococcus epidermidis EPI2; agar dilution; read-out: Minimum Inhibitory Concentration
Text: as §1

Escherichia coli EC14 = experiment: MIC, standard agar dilution test; type: cell-based; details: Escherichia coli, EC14, read-out: Minimum Inhibitory Concentration
Text: as §1

[4] = system: Staphylococcus aureus S13E; experiment: MIC, standard agar dilution test; type: cell-based; details: read-out: Minimum Inhibitory Concentration
Text: as §1

Escherichia coli N10 = experiment: MIC, standard agar dilution test; type: cell-based; details: Escherichia coli, N10, read-out: Minimum Inhibitory Concentration
Text: as §1

[5] = system: Klebsiella pneumoniae KAE; experiment: MIC, standard agar dilution test; type: cell-based; details: Klebsiella pneumoniae, read-out: Minimum Inhibitory Concentration
Text: as §1

[6] = system: Staphylococcus aureus X400; experiment: MIC, standard agar dilution test; type: cell-based; details: Staphylococcus aureus, X400, read-out: Minimum Inhibitory Concentration, Staphylococcus aureus X400
Text: as §1

Serratia marcescens SE3 = experiment: MIC, standard agar dilution test; type: cell-based; details: Serratia marcescens, SE3, read-out: Minimum Inhibitory Concentration
Text: as §1

Enterobacter cloacae EB5 = experiment: MIC, standard agar dilution test; type: cell-based; details: Enterobacter cloacae, EB5, read-out: Minimum Inhibitory Concentration
Text: as §1

[7] = system: Streptococcus pyogenes C203; experiment: MIC, standard agar dilution test; type: cell-based; details: Streptococcus pyogenes, C203, read-out: Minimum Inhibitory Concentration
Text: as §1

[8] = system: Enterobacter aerogenes EB17; experiment: MIC, standard agar dilution test; type: cell-based; details: Klebsiella aerogenes; Enterobacter aerogenes EB17; agar dilution; read-out: Minimum Inhibitory Concentration
Text: as §1

Proteus morganii PR15 = experiment: MIC, standard agar dilution test; type: cell-based; details: Morganella morganii, PR15, read-out: Minimum Inhibitory Concentration
Text: as §1

Proteus rettgeri PR7 = experiment: MIC, standard agar dilution test; type: cell-based; details: Providencia rettgeri, PR7, read-out: Minimum Inhibitory Concentration, Proteus rettgeri PR7
Text: as §1

[9] = system: Staphylococcus epidermidis EPI1; experiment: MIC, standard agar dilution test; type: cell-based; details: Staphylococcus epidermidis, EPI1; read-out: Minimum Inhibitory Concentration
Text: as §1

[10] = system: Staphylococcus aureus X1.1; experiment: MIC, standard agar dilution test; type: cell-based; details: Staphylococcus aureus X1.1; agar dilution; read-out: Minimum Inhibitory Concentration
Text: as §1

[11] = system: Pseudomonas aeruginosa X528; experiment: MIC, standard agar dilution test; type: cell-based; details: Pseudomonas aeruginosa, X528, read-out: Minimum Inhibitory Concentration
Text: as §1

[12] = system: Enterobacter cloacae 265A; experiment: MIC, standard agar dilution test; type: cell-based; details: Enterobacter cloacae, 265A, read-out: Minimum Inhibitory Concentration
Text: as §1

[13] = system: Citrobacter freundii CF17; experiment: MIC, standard agar dilution test; type: cell-based; details: Citrobacter freundii, CF17, read-out: Minimum Inhibitory Concentration
Text: as §1

[14] = system: Salmonella heidelberg X514; experiment: MIC, standard agar dilution test; type: cell-based; details: Salmonella enterica, X514, read-out: Minimum Inhibitory Concentration
Text: as §1

Escherichia coli TEM = experiment: MIC, standard agar dilution test; type: cell-based; details: read-out: Minimum Inhibitory Concentration
Text: as §1

[15] = system: Klebsiella pneumoniae X26; experiment: MIC, standard agar dilution test; type: cell-based; details: Klebsiella pneumoniae X26; agar dilution; read-out: Minimum Inhibitory Concentration
Text: as §1

[16] = system: Streptococcus group D 9960; experiment: MIC, standard agar dilution test; type: cell-based; details: D9960, read-out: Minimum Inhibitory Concentration
Text: as §1

Proteus inconstans PR33 = experiment: MIC, standard agar dilution test; type: cell-based; details: Providencia alcalifaciens, PR33, read-out: Minimum Inhibitory Concentration
Text: as §1

[17] = system: Pseudomonas aeruginosa X239; experiment: MIC, standard agar dilution test; type: cell-based; details: Pseudomonas aeruginosa, X239, read-out: Minimum Inhibitory Concentration
Text: as §1

[18] = system: Hemophilus influenzae C.L.; experiment: MIC, standard agar dilution test; type: cell-based; details: Haemophilus influenzae, Hemophilus influenzae C.L., read-out: Minimum Inhibitory Concentration
Text: as §1

[19] = system: Salmonella typhimurium 1335; experiment: MIC, standard agar dilution test; type: cell-based; details: Salmonella enterica, TYPHIMURIUM, read-out: Minimum Inhibitory Concentration
Text: as §1

[20] = system: Staphylococcus aureus V41; experiment: MIC, standard agar dilution test; type: cell-based; details: Staphylococcus aureus, V41, read-out: Minimum Inhibitory Concentration
Text: as §1

Shigella sonnei N9 = experiment: MIC, standard agar dilution test; type: cell-based; details: read-out: Minimum Inhibitory Concentration
Text: as §1

[21] = system: Enterobacter aerogenes C32; experiment: MIC, standard agar dilution test; type: cell-based; details: Klebsiella aerogenes; Enterobacter aerogenes C32; agar dilution; read-out: Minimum Inhibitory Concentration
Text: as §1

[22] = system: Pseudomonas aeruginosa Ps18; experiment: MIC, standard agar dilution test; type: cell-based; details: Pseudomonas aeruginosa, PS18, read-out: Minimum Inhibitory Concentration
Text: as §1

Proteus rettgeri C24 = experiment: MIC, standard agar dilution test; type: cell-based; details: Providencia rettgeri; Proteus rettgeri C24; agar dilution; read-out: Minimum Inhibitory Concentration
Text: as §1

[23] = system: Bordetella bronchiseptica 16; experiment: MIC, standard agar dilution test; type: cell-based; details: Bordetella bronchiseptica, 16, read-out: Minimum Inhibitory Concentration
Text: as §1

[24] = system: Streptococcus group D X66; experiment: MIC, standard agar dilution test; type: cell-based; details: DX66, read-out: Minimum Inhibitory Concentration
Text: as §1

Serratia marcescens X99 = experiment: MIC, standard agar dilution test; type: cell-based; details: Serratia marcescens X99, read-out: Minimum Inhibitory Concentration
Text: as §1

Hemophilus influenzae 76 = experiment: MIC, standard agar dilution test; type: cell-based; details: Haemophilus influenzae, Hemophilus influenzae 76, read-out: Minimum Inhibitory Concentration
Text: as §1

[25] = system: Staphylococcus aureus 3055; experiment: Subcutaneous therapy of experimental bacterial infection in mice (ED50); type: in vivo; details: Staphylococcus aureus, 3055, sc; mg/kg × 2 subcutaneous doses at 1 and 5 hours post infection; mice challenged with 1,794 LD50's; read-out: Effective Dose (ED50)
Procedure: Table II illustrates the effective dose (ED50, the effective dose to protect 50 percent of the test animals) for representative compounds of this invention against an experimental bacterial infection in mice.
The ED50 values were determined as described by W. E. Wick et al., Journal of Bacteriology, 81 [No. 2], 233-235 (1961).

Escherichia coli X563 = experiment: Standard disc-plate method, zone of inhibition against apramycin-resistant strain; type: cell-based; details: Escherichia coli, X563, read-out: Zone of Inhibition (diameter in mm), 15 mcg/disc; apramycin-resistant E. coli X563; one value for each of two test runs per compound
Text: Table III, shown below, illustrates the in vitro activity of 1-N-(S-y-amino-a-hydroxybutyryl)apramycin, 1-N-(RS-y-amino-a-hydroxybutyryl)apramycin, and 1-N-(S-y-amino-a-hydroxybutyryl)nebramine against an apramycin resistant strain of E. coli. The results below were obtained using the standard disc-plate method. The numerical values are the diameters in millimeters of the zones of inhibition observed against this bacterium. Compounds substituted with the y-amino-a-hydroxybutyryl and analogous side chains are useful in treating infections caused by apramycin resistant bacteria such as the one above.
The test organism (E. coli X563) used in the experiments summarized in Table III is resistant to apramycin due to a 3-N-acetyltransferase which enzymatically inactivates apramycin.

SMILES: CNC1C(OC2OC(CO)C(N)C(O)C2O)OC2CC(N)C(OC3C(N)CC(NC(=O)CN)C(O)C3O)OC2C1O (centres unmarked) [Test Compound 3, 1-N-glycylapramycin]
- MIC [1]: > 128 µg/mL
- MIC [2]: 64 µg/mL (≈ 107 µM)
- MIC [3]: 64 µg/mL (≈ 107 µM)
- MIC (Escherichia coli EC14): 128 µg/mL (≈ 215 µM)
- MIC [4]: 64 µg/mL (≈ 107 µM)
- MIC (Escherichia coli N10): > 128 µg/mL
- MIC [5]: > 128 µg/mL
- MIC [6]: > 128 µg/mL
- MIC (Serratia marcescens SE3): 128 µg/mL (≈ 215 µM)
- MIC (Enterobacter cloacae EB5): 128 µg/mL (≈ 215 µM)
- MIC [7]: > 128 µg/mL
- MIC [8]: 64 µg/mL (≈ 107 µM)
- MIC (Proteus morganii PR15): > 128 µg/mL
- MIC (Proteus rettgeri PR7): > 128 µg/mL
- MIC [9]: 64 µg/mL (≈ 107 µM)
- MIC [10]: 64 µg/mL (≈ 107 µM)
- MIC [11]: > 128 µg/mL
- MIC [12]: 128 µg/mL (≈ 215 µM)
- MIC [13]: > 128 µg/mL
- MIC [14]: 128 µg/mL (≈ 215 µM)
- MIC (Escherichia coli TEM): 32 µg/mL (≈ 53.6 µM)
- MIC [15]: 64 µg/mL (≈ 107 µM)
- MIC [16]: > 128 µg/mL
- MIC (Proteus inconstans PR33): 128 µg/mL (≈ 215 µM)
- MIC [17]: > 128 µg/mL
- MIC [18]: 64 µg/mL (≈ 107 µM)
- MIC [19]: 128 µg/mL (≈ 215 µM)
- MIC [20]: 128 µg/mL (≈ 215 µM)
- MIC (Shigella sonnei N9): 128 µg/mL (≈ 215 µM)
- MIC [21]: 64 µg/mL (≈ 107 µM)
- MIC [22]: > 128 µg/mL
- MIC (Proteus rettgeri C24): 64 µg/mL (≈ 107 µM)
- MIC [23]: > 128 µg/mL
- MIC [24]: > 128 µg/mL
- MIC (Serratia marcescens X99): 64 µg/mL (≈ 107 µM)
- MIC (Hemophilus influenzae 76): 64 µg/mL (≈ 107 µM)
- ED50 [25]: 59.5 mg/kg
- zone of inhibition at 15 µg/disc (Escherichia coli X563): < 8 mm
